# From patent publication US20140275143A1, “Compositions Comprising An Opioid And An Additional Active Pharmaceutical Ingredient For Rapid Onset And Extended Duration Of Analgesia That May Be Administered Without Regard To Food” (MALLINCKRODT LLC, priority 2013, published 2014)
# Columns and labels:
# [1] = Dose proportionality and linearity of oxycodone (Example 34); format: in vivo, human; conditions: CR OC/APAP; for AUC0-inf vs dose, Slope / AUC0-inf vs dose, y-Intercept / Cmax vs dose, Slope / Cmax vs dose, y-Intercept: linearity; for Dose-normalized AUC0-inf vs dose, Slope / Dose-normalized AUC0-inf vs dose, y-Intercept / Dose-normalized Cmax vs dose, Slope / Dose-normalized Cmax vs dose, y-Intercept: proportionality
# Method: Data were pooled from randomized, crossover, single- and multiple-dose studies conducted in healthy adults (aged 18-55 years) to evaluate the dose proportionality and dose linearity of the oxycodone component of CR OC/APAP when administered as 1, 2, or 4 tablets (7.5 mg, 15 mg, or 30 mg oxycodone, respectively). […] (See selected example from Chart No. 1)
# The following treatments were administered under fasted conditions: • Single-dose studies: 1, 2, or 4 tablets of CR OC/APAP (7.5 mg, 15 mg, or 30 mg oxycodone, respectively) (see selected example from Chart No. 1) administered orally once • Multiple-dose studies: 1 or 2 tablets of CR OC/APAP (7.5 mg or 15 mg oxycodone, respectively) (see selected example from Chart No. 1) administered every 12 hours for 4.5 days (9 doses)
# (§1) One single-dose study (highest dosage) enrolled healthy recreational drug users; all other studies enrolled healthy subjects with specific exclusions for drug use.
# (§2) Area under the plasma oxycodone concentration-time curve from time 0 extrapolated to infinity (AUC0-inf) and maximum plasma concentration (Cmax)) were compared across dose levels of CR OC/APAP. […] For a linear PK system, the measures of exposure, such as maximal blood concentration (Cmax) or area under the curve from 0 to infinity (AUC) on the y-axis, are linearly (i.e., by a straight line) related to dose on the x-axis. Dose proportionality for CR OC/APAP was assessed; dose proportionality occurs when increases in the administered dose are accompanied by proportional increases in a measure of exposure, such as AUC or Cmax.
# (§3) AUC0-inf and Cmax were divided by dose (dose-normalized) for dose proportionality analyses. Dose normalization (calculated as plasma concentration divided by dose) was utilized to compare concentration across different dosage strengths. Dose linearity and proportionality were determined using linear regression of non-transformed data, including 95% confidence intervals (CIs) and 95% prediction limits. Slope, y-intercept, and R^2 were calculated. The slope and the intercept together define the linear relationship between dose and AUC, or dose and Cmax. The coefficient of determination, R^2, represents the proportion of variability in a data set that is accounted for by a statistical model.
# [2] = Dose proportionality and linearity of acetaminophen (Example 33); format: in vivo, human; conditions: CR OC/APAP; for AUC0-inf vs dose, Slope / AUC0-inf vs dose, y-Intercept / Cmax vs dose, Slope / Cmax vs dose, y-Intercept: linearity; for Dose-normalized AUC0-inf vs dose, Slope / Dose-normalized AUC0-inf vs dose, y-Intercept / Dose-normalized Cmax vs dose, Slope / Dose-normalized Cmax vs dose, y-Intercept: proportionality
# Excerpt: (See selected example from Chart No. 1)
# as §1
# as §2, with “APAP” for “oxycodone”
# as §3
smiles,measurement,setting,value
COc1ccc2c3c1O[C@H]1C(=O)CC[C@@]4(O)[C@@H](C2)N(C)CC[C@]314 [Oxycodone],"AUC0-inf vs dose, Slope",[1]; Multiple-Dose,14.151
same,"AUC0-inf vs dose, y-Intercept",[1]; Multiple-Dose,−3.774
same,"Cmax vs dose, Slope",[1]; Multiple-Dose,1.640
same,"Cmax vs dose, y-Intercept",[1]; Multiple-Dose,0.362
same,"AUC0-inf vs dose, Slope",[1]; Single-Dose,11.093
same,"AUC0-inf vs dose, y-Intercept",[1]; Single-Dose,7.202
same,"Cmax vs dose, Slope",[1]; Single-Dose,1.050
same,"Cmax vs dose, y-Intercept",[1]; Single-Dose,−0.417
same,"Dose-normalized AUC0-inf vs dose, Slope",[1]; Multiple-Dose,0.033
same,"Dose-normalized AUC0-inf vs dose, y-Intercept",[1]; Multiple-Dose,13.397
same,"Dose-normalized Cmax vs dose, Slope",[1]; Multiple-Dose,−0.003
same,"Dose-normalized Cmax vs dose, y-Intercept",[1]; Multiple-Dose,1.712
same,"Dose-normalized AUC0-inf vs dose, Slope",[1]; Single-Dose,−0.024
same,"Dose-normalized AUC0-inf vs dose, y-Intercept",[1]; Single-Dose,12.015
same,"Dose-normalized Cmax vs dose, Slope",[1]; Single-Dose,−0.001
same,"Dose-normalized Cmax vs dose, y-Intercept",[1]; Single-Dose,1.041
CC(=O)Nc1ccc(O)cc1 [acetaminophen],"AUC0-inf vs dose, Slope",[2]; Multiple-Dose,40.177
same,"AUC0-inf vs dose, y-Intercept",[2]; Multiple-Dose,2249.134
same,"Cmax vs dose, Slope",[2]; Multiple-Dose,7.079
same,"Cmax vs dose, y-Intercept",[2]; Multiple-Dose,816.140
same,"AUC0-inf vs dose, Slope",[2]; Single-Dose,41.021
same,"AUC0-inf vs dose, y-Intercept",[2]; Single-Dose,4024.292
same,"Cmax vs dose, Slope",[2]; Single-Dose,6.336
same,"Cmax vs dose, y-Intercept",[2]; Single-Dose,467.019
same,"Dose-normalized AUC0-inf vs dose, Slope",[2]; Multiple-Dose,−0.011
same,"Dose-normalized AUC0-inf vs dose, y-Intercept",[2]; Multiple-Dose,50.557
same,"Dose-normalized Cmax vs dose, Slope",[2]; Multiple-Dose,−0.004
same,"Dose-normalized Cmax vs dose, y-Intercept",[2]; Multiple-Dose,10.845
same,"Dose-normalized AUC0-inf vs dose, Slope",[2]; Single-Dose,−0.007
same,"Dose-normalized AUC0-inf vs dose, y-Intercept",[2]; Single-Dose,52.943
same,"Dose-normalized Cmax vs dose, Slope",[2]; Single-Dose,−0.001
same,"Dose-normalized Cmax vs dose, y-Intercept",[2]; Single-Dose,7.877
